Experimental data published in patent US4272437A, “Antibacterial agents, and 4-thio azetidinone intermediates” (priority 1979, dated 1981).
Converted amounts (≈) assume the structure as drawn. “And” between values parts separate entries of the source, which are not always exact repeats. Equal values may be shown once. Read-outs that look alike come from different tables or passages of the source.

Tests used:
[1] = system: E. coli A-20341-1; assay: MIC, tube dilution, Escherichia coli A20341-1; type: cell-based; conditions: overnight 37° C.; for MIC: Escherichia coli, A203411, E. coli A20341-1, read-out: Minimum Inhibitory Concentration (M.I.C.)
Description: (§1) Representative compounds of the present invention were subjected to in vitro antibiotic screening against a variety of microorganisms.

[2] = system: Staph. aureus (Meth-Res) A-15097; assay: MIC, tube dilution, Staphylococcus aureus A15097 (Meth-Res); type: cell-based; conditions: Staph. aureus A15097 (Meth-Res), overnight 37° C.; for MIC: Staphylococcus aureus, read-out: Minimum Inhibitory Concentration (M.I.C.)
Description: as §1

[3] = system: Proteus vulgaris A9555; assay: MIC, tube dilution, Proteus vulgaris (mirabilis) A9555; type: cell-based; conditions: overnight 37° C., read-out: Minimum Inhibitory Concentration (M.I.C.)
Description: as §1

[4] = system: Klebsiella species A20468; assay: MIC, tube dilution, Klebsiella species A20468; type: cell-based; conditions: Klebsiella species (K. pneumoniae) A20468, overnight 37° C.; for MIC: read-out: Minimum Inhibitory Concentration (M.I.C.)
Description: as §1

[5] = system: Staph. aureus A-9537; assay: MIC, tube dilution, Staphylococcus aureus A9537; type: cell-based; conditions: overnight 37° C., Nutrient Broth
Description: as §1

[6] = system: Ent. cloacae A-9659; assay: MIC, tube dilution, Enterobacter cloacae A9659; type: cell-based; conditions: overnight 37° C.
Description: as §1

[7] = system: E. coli A-15119; assay: MIC, tube dilution, Escherichia coli A15119; type: cell-based; conditions: overnight 37° C.
Description: as §1

[8] = system: Str. pneumoniae A-9585; assay: MIC, tube dilution, Streptococcus pneumoniae A9585; type: cell-based; conditions: overnight 37° C., Nutrient Broth
Description: as §1

[9] = system: Pr. vulgaris A-9716; assay: MIC, tube dilution, Proteus vulgaris / Proteus mirabilis A9716; type: cell-based, Proteus vulgaris (name changed to Proteus mirabilis); conditions: Proteus vulgaris / Proteus mirabilis A9716; overnight 37° C.
Description: as §1

[10] = system: Ent. cloacae A-9656; assay: MIC, tube dilution, Enterobacter cloacae A9656; type: cell-based; conditions: overnight 37° C.
Description: as §1

[11] = system: Str. faecalis A-20688; assay: MIC, tube dilution, Streptococcus faecalis A20688; type: cell-based; conditions: overnight 37° C.; for MIC: Enterococcus faecalis, A20688, Str. faecalis A20688, read-out: Minimum Inhibitory Concentration (M.I.C.)
Description: as §1

[12] = system: Pr. morganii A-15153; assay: MIC, tube dilution, Proteus morganii A15153; type: cell-based; conditions: overnight 37° C.
Description: as §1

[13] = system: Staph. aureus (Pen-Res) A-9606; assay: MIC, tube dilution, Staphylococcus aureus A9606 (Pen-Res); type: cell-based; conditions: Staph. aureus A9606 (Pen-Res), overnight 37° C.
Description: as §1

[14] = system: Str. pyogenes A-9604; assay: MIC, tube dilution, Streptococcus pyogenes A9604; type: cell-based; conditions: overnight 37° C., Nutrient Broth
Description: as §1

[15] = system: Proteus rettgeri A21203; assay: MIC, tube dilution, Proteus rettgeri A21203; type: cell-based; conditions: overnight 37° C.
Description: as §1

[16] = system: Ps. aeruginosa A-21213; assay: MIC, tube dilution, Pseudomonas aeruginosa A21213; type: cell-based; conditions: overnight 37° C.; for MIC: Pseudomonas aeruginosa, A21213, Pseudomonas aeruginosa A21213, read-out: Minimum Inhibitory Concentration (M.I.C.)
Description: as §1

[17] = system: Pr. mirabilis A-9900; assay: MIC, tube dilution, Proteus mirabilis A9900; type: cell-based; conditions: overnight 37° C.
Description: as §1

[18] = system: Staph. aureus A-9537 and 50% serum; assay: MIC, tube dilution, Staph. aureus A9537 + 50% serum; type: cell-based, Staphylococcus aureus; conditions: overnight 37° C.
Description: as §1

[19] = system: Ser. marcescens A-20019; assay: MIC, tube dilution, Serratia marcescens A20019; type: cell-based; conditions: overnight 37° C.
Description: as §1

[20] = system: Ps. aeruginosa A-9843A; assay: MIC, tube dilution, Pseudomonas aeruginosa A9843A; type: cell-based; conditions: overnight 37° C.
Description: as §1

[21] = stability in aqueous solution followed by UV; type: physicochemical; set-up: unit not given here; conditions: UV, aqueous solution
Description: To a solution of penem 3 (2.4 g, 6.89 mmoles) in tetrahydrofuran-ether-water mixture (1:1:1, 165 ml) was added 30% palladium on diatomaceous earth (4.8 g). The reaction mixture was hydrogenated under 45 p.s.i. at 23° C. for 2.5 h and filtered over celite pad. The filtrate and washings were combined, washed twice with ether, centrifugated and filtered several times to give a clear solution which was lyophilized; 0.622 g, 45%. The crystallization of the compound was induced by the addition of water (0.8 ml); the suspension was centrifuged and the water was removed leaving an orange solid. This solid was washed twice with water and a slightly yellow solid was obtained after drying: […], 19.8%. UV λmax^H.sbsp.2^O : 307 (ε=4318) and 257 (ε=2650). Some crude starting material (1.2 g, 50%) was recovered. The compound (50 mg) can also be purified by column chromatography [Sephadex G10, column size: 1.6×100 cm, flow rate: 10 ml/h, eluent: distilled water, fraction volume: 1.5 ml, detector: refractive index]. UV λmax^H.sbsp.2^O 307 (ε=3597) and 255 (ε=2424).
The stability of the compound in aqueous solution was checked by:
A sample of compound 4 was kept at 23° C. for 3 days and the UV was taken: UV λmax^H.sbsp.2^O : 307 (ε=3055) and 255 (ε=2008).
To a solution of ester 6 (200 mg, 0.5 mmole) in tetrahydrofuran (10 ml) was added ether (10 ml), water (10 ml) and 30% palladium on diatomaceous earth (200 mg). The reaction mixture was hydrogenated in a Parr apparatus under 35 p.s.i. at 25° C. for 2 h 30 min and filtered over a celite pad. The filtrate was washed twice with ether and the aqueous solution was lyophilized, giving a yellow powder which was purified by column chromatography [Sephadex G-10, bed dimensions: 100×1.6 cm, flow rate: 12 ml/h, eluent: distilled water, fraction volume: 1.5 ml detector: refractive index]. The right fractions were combined and lyophilized to give a white powder (10 mg, 8.8%). UV λmax^H.sbsp.2 O 301 (ε=4930), 258 (ε=3290). IR (KBr) cm^-1 :1770 (c=o of β-lactam) and 1580 [drawing 587] The stability of compound 7 in aqueous solution was followed by UV; after 6 h: 301 (4795) and 258 (3105) and after 72 h: 301 (4565) and 258 (3150). […]

[22] = system: K. pneumoniae A-15130; assay: MIC, tube dilution, Klebsiella pneumoniae A15130; type: cell-based; conditions: overnight 37° C.
Description: as §1

[23] = system: E. coli A15119; assay: In vivo protection of mice, lethal infection with E. coli A15119; conditions: Escherichia coli, 2 treatments, 6.5 × 10^5 organisms, read-out: PD50
Description: (§2) Representative compounds of the present invention were also tested in vivo in mice and their PD50 (dose of compound in mg/kg required to protect 50% of the treated mice against an otherwise lethal infection of a micro-organism) values determined with respect to the test organisms shown below.

[24] = system: Proteus vulgaris A21559; assay: MIC, tube dilution, Proteus vulgaris A21559; type: cell-based; conditions: Proteus vulgaris, A21559, Proteus vulgaris A21559; overnight 37° C.; read-out: Minimum Inhibitory Concentration (M.I.C.)
Description: as §1

[25] = system: S. aureus A9537; assay: In vivo protection of mice, lethal infection with S. aureus A9537; conditions: Staphylococcus aureus, A9537, im, IM, 2 treatments, 7.3 × 10^5 organisms; read-out: PD50
Description: as §2

[26] = Staphylococcus aureus, read-out: Minimum Inhibitory Concentration (M.I.C.)

## NCCCC1=C(C(=O)O)N2C(=O)CC2S1 (centres unmarked) [Example 51, 2-(γ-Aminopropyl)penem-3-carboxylic Acid]
[1]; E. coli A20341-1
  Minimum Inhibitory Concentration (M.I.C.): 125 µg/mL
[1]
  MIC: > 63 µg/mL
[2]
  Minimum Inhibitory Concentration (M.I.C.): 125 µg/mL
  MIC: 63 µg/mL (≈ 276 µM)
[3]
  MIC: 63 µg/mL (≈ 276 µM)
[4]
  Minimum Inhibitory Concentration (M.I.C.): > 125 µg/mL
  MIC: > 63 µg/mL
[5]; Staph. aureus A9537
  Minimum Inhibitory Concentration (M.I.C.): 2 µg/mL and 1 µg/mL
[6]; Enterobacter cloacae A9659
  Minimum Inhibitory Concentration (M.I.C.): 16 µg/mL
[7]; E. coli A15119
  Minimum Inhibitory Concentration (M.I.C.): 16 µg/mL and 8 µg/mL
[8]; Str. pneumoniae A9585
  Minimum Inhibitory Concentration (M.I.C.): .25 µg/mL
[9]
  Minimum Inhibitory Concentration (M.I.C.): 16 µg/mL
[10]; Enterobacter cloacae A9656
  Minimum Inhibitory Concentration (M.I.C.): 32 µg/mL
[11]
  MIC: 63 µg/mL (≈ 276 µM)
[11]; Str. faecalis A20688
  Minimum Inhibitory Concentration (M.I.C.): 125 µg/mL
[12]; Proteus morganii A15153
  Minimum Inhibitory Concentration (M.I.C.): 32 µg/mL and 16 µg/mL
[13]
  Minimum Inhibitory Concentration (M.I.C.): 63 µg/mL and 32 µg/mL
[14]; Str. pyogenes A9604
  Minimum Inhibitory Concentration (M.I.C.): 2 µg/mL and 1 µg/mL
[15]; Proteus rettgeri A21203
  Minimum Inhibitory Concentration (M.I.C.): 16 µg/mL and 8 µg/mL
[16]; Pseudomonas aeruginosa A21213
  Minimum Inhibitory Concentration (M.I.C.): 125 µg/mL
[16]
  MIC: 63 µg/mL (≈ 276 µM)
[17]; Proteus mirabilis A9900
  Minimum Inhibitory Concentration (M.I.C.): 16 µg/mL and 8 µg/mL
[18]
  Minimum Inhibitory Concentration (M.I.C.): 63 µg/mL and > 32 µg/mL
[19]; Serratia marcescens A20019
  Minimum Inhibitory Concentration (M.I.C.): 32 µg/mL and 16 µg/mL
[20]; Pseudomonas aeruginosa A9843A
  Minimum Inhibitory Concentration (M.I.C.): 125 µg/mL and 63 µg/mL
[21]; after 6 h
  ε at 258 in aqueous solution (stability): 3105
  ε at 301 in aqueous solution (stability): 4795
[21]; after 72 h
  ε at 258 in aqueous solution (stability): 3150
  ε at 301 in aqueous solution (stability): 4565
[22]; K. pneumoniae A15130
  Minimum Inhibitory Concentration (M.I.C.): 32 µg/mL

## N[C@H]1C[C@H](C2=C(C(=O)O)N3C(=O)C[C@H]3S2)C1 [Example 75, 2-(trans 3-Aminocyclobutyl)-penem-3-carboxylic Acid]
[1]
  MIC: 8 µg/mL (≈ 33.3 µM)
[2]
  MIC: 4 µg/mL (≈ 16.6 µM)
[4]
  MIC: > 125 µg/mL
[5]; Staphylococcus aureus, A9537, Staph. aureus A9537, read-out: Minimum Inhibitory Concentration (M.I.C.)
  MIC: 0.06 µg/mL (≈ 0.25 µM)
[6]; Enterobacter cloacae, A9659, Enterobacter cloacae A9659, read-out: Minimum Inhibitory Concentration (M.I.C.)
  MIC: 4 µg/mL (≈ 16.6 µM)
[7]; Escherichia coli, A15119, E. coli A15119, read-out: Minimum Inhibitory Concentration (M.I.C.)
  MIC: 1 µg/mL (≈ 4.16 µM)
[8]; Streptococcus pneumoniae, A9585, Str. pneumoniae A9585, read-out: Minimum Inhibitory Concentration (M.I.C.)
  MIC: 0.002 µg/mL (≈ 0.00832 µM)
[10]; Enterobacter cloacae, A9656, Enterobacter cloacae A9656, read-out: Minimum Inhibitory Concentration (M.I.C.)
  MIC: 4 µg/mL (≈ 16.6 µM)
[11]
  MIC: 4 µg/mL (≈ 16.6 µM)
[12]; Morganella morganii, A15153, Proteus morganii A15153, read-out: Minimum Inhibitory Concentration (M.I.C.)
  MIC: 4 µg/mL (≈ 16.6 µM)
[13]; [26]
  MIC: 63 µg/mL (≈ 262 µM)
[14]; Streptococcus pyogenes, A9604, Str. pyogenes A9604, read-out: Minimum Inhibitory Concentration (M.I.C.)
  MIC: 0.016 µg/mL (≈ 0.0666 µM)
[15]; Providencia rettgeri, A21203, Proteus rettgeri A21203, read-out: Minimum Inhibitory Concentration (M.I.C.)
  MIC: 1 µg/mL (≈ 4.16 µM)
[23]; IM
  ED50: 25 mg/kg
[23]; PO
  ED50: > 50 mg/kg
[16]
  MIC: 125 µg/mL (≈ 520 µM)
[17]; Proteus mirabilis, A9900, Proteus mirabilis A9900, read-out: Minimum Inhibitory Concentration (M.I.C.)
  MIC: 1 µg/mL (≈ 4.16 µM)
[18]; [26]
  MIC: 0.5 µg/mL
[19]; Serratia marcescens, A20019, Serratia marcescens A20019, read-out: Minimum Inhibitory Concentration (M.I.C.)
  MIC: 2 µg/mL (≈ 8.32 µM)
[20]; Pseudomonas aeruginosa, A9843A, read-out: Minimum Inhibitory Concentration (M.I.C.), Pseudomonas aeruginosa A9843A
  MIC: 63 µg/mL (≈ 262 µM)
[24]
  MIC: 2 µg/mL (≈ 8.32 µM)
[22]; Klebsiella pneumoniae, A15130, K. pneumoniae A15130, read-out: Minimum Inhibitory Concentration (M.I.C.)
  MIC: 4 µg/mL (≈ 16.6 µM)
[25]
  ED50: 0.4 mg/kg
